Here are results for twelve molecules from PMC9315981, “N-Phenacyldibromobenzimidazoles—Synthesis Optimization and Evaluation of Their Cytotoxic Activity” (Molecules, 2022).

For assay [1], the system named is MRC-5 (normal lung fibroblasts). The assay is described as follows: MTT-based viability assay, MRC-5. Type of assay: cell-based. To be noted: Homo sapiens, MRC5, 48 h of treatment, read-out: EC50 ± SD, MRC-5. The procedure: (§1) To evaluate the cytotoxic activity of compounds 4a–j and 5a–5j, we performed an MTT test for three tumor cell lines, i.e.,: MCF-7 (breast adenocarcinoma), A-549 (lung adenocarcinoma), CCRF-CEM (acute lymphoblastic leukemia), and one normal cell line, MRC-5 (normal lung fibroblasts). The EC50 values, describing the half maximal effective concentration of each tested compound, were calculated and are summarized in Table 4. The representative sigmoidal dose–response curves are shown in Figure S2 (see Supporting Information S2).
(§2) CCRF-CEM (ECACC 85112105) human acute lymphoblastic leukaemia and MRC-5 pd30 Human fetal lung fibroblasts (ECACC 05090501) were purchased from European Collection of Authenticated Cell Cultures, whereas A-549 (ATCC CCL 185) human lung carcinoma and MCF-7 (ATCC HTB-22) human breast adenocarcinoma cell line were purchased from American Type Culture Collection. A-549 and MCF-7 cell lines were cultured in high glucose DMEM (Biowest) supplemented with 10% fetal bovine serum (Biowest), 2 mM L-glutamine and antibiotics (100 U/mL penicillin, 100 µg/mL streptomycin). CCRF-CEM were cultured in RPMI 1640 supplemented with 10% fetal bovine serum (EuroClone), 2 mM L-glutamine and antibiotics (100 U/mL penicillin, 100 µg/mL streptomycin). MRC-5 pd30 human fibroblasts (ECACC) were cultured in MEME, Minimum Essential Medium Eagle (Merck) supplemented with 10% fetal bovine serum (Merck), 2 mM l-glutamine, antibiotics (100 U mL^−1 penicillin, 100 μg mL^−1 streptomycin, Merck) and 1% non-essential amino-acids (Merck). Cells were grown in 75 cm^2 cell culture flasks (Sarstedt, Nümbrecht, Germany), in a humidified atmosphere of CO2/air (5/95%) at 37 °C. All the experiments were performed in exponentially growing cultures. Stock solution of tested compounds were prepared in DMSO and stored in −20 °C for maximum one month. For the cytotoxicity studies, stock solutions were diluted 200-fold with the proper culture medium to obtain the final concentrations. For cytotoxicity studies 2-fold serial dilutions of the tested compounds were prepared in the proper medium in the range from 3.125 µM to 200 µM.
(§3) After incubation with the test compounds, MTT test was performed as described previously. Optical densities were measured at 570 nm using BioTek microplate reader. All measurements were carried out in a minimum of three replicates.
In general terms: Formazan colour is commonly taken as a measure of viable cells.

Assay [2] deals with A-549 (lung adenocarcinoma). The assay can be described thus: MTT-based viability assay, A-549. Type of assay: cell-based. The settings on record: Homo sapiens, A549, 48 h of treatment, read-out: EC50 ± SD, A-549. As to the method: as §1, §2, §3
Assay [3] relates to MCF-7 (breast adenocarcinoma). The assay can be described thus: MTT-based viability assay, MCF-7. It is filed as cell-based, human. To be noted: for EC50: Homo sapiens, MCF7, MTT, 48 h of treatment, read-out: EC50 ± SD, MCF-7; for SI (selectivity index), MCF-7: SI = EC50 for normal MRC-5 line/EC50 for MCF-7. As to the method:
as §1, §2, §3

For assay [4], the system named is CCRF-CEM (acute lymphoblastic leukemia). The assay is described as follows: MTT-based viability assay, CCRF-CEM. It is filed as cell-based, human. To be noted: for EC50: Homo sapiens, CCRF-CEM, MTT, 48 h of treatment, read-out: EC50 ± SD, CCRF-CEM; for SI (selectivity index), CCRF-CEM: SI = EC50 for normal MRC-5 line/EC50 for CCRF-CEM. The procedure: as §1, §2, §3

As usually defined, the EC50 is the midpoint of the concentration-response curve. Consider `O=C(Cn1cnc2cc(Br)c(Br)cc21)c1ccccc1` [Compound 4a], for which the EC50 in assay [1] was determined as 51.4 ± 1.62 µM; in assay [2] it was 111 ± 11.7 µM; in assay [3], 37.6 ± 3.4 µM; in assay [4], 78.1 ± 5.58 µM. In assay [3], the “SI (selectivity index), MCF-7” value stood at 1.37. Further, the “SI (selectivity index), CCRF-CEM” value in assay [4] is recorded as 0.66.
For `O=C(Cn1cnc2cc(Br)c(Br)cc21)c1ccc(F)cc1` [Compound 4b], the EC50 in assay [1] came to 56.1 ± 4.33 µM; in assay [2] it was 54.5 ± 1.58 µM; in assay [3], 33 ± 2.63 µM; in assay [4], 44.1 ± 3.04 µM. Moreover, the “SI (selectivity index), MCF-7” value in assay [3] came out at 1.70. In addition, the “SI (selectivity index), CCRF-CEM” value in assay [4] is 1.27.
As for `O=C(Cn1cnc2cc(Br)c(Br)cc21)c1ccc(Cl)cc1` [Compound 4c], the EC50 in assay [1] was determined as 54.24 ± 0.52 µM; in assay [2], 76.6 ± 3.08 µM; in assay [3], 49.1 ± 5.58 µM; in assay [4] it was 56.6 ± 4.48 µM. Further, in assay [3], the “SI (selectivity index), MCF-7” value is 1.10. The “SI (selectivity index), CCRF-CEM” value in assay [4] came out at 0.96.
In the case of `O=C(Cn1cnc2cc(Br)c(Br)cc21)c1ccc(Cl)cc1Cl` [Compound 4e], the EC50 in assay [2] worked out at 67.98 ± 0.41 µM. In addition, in assay [3], the EC50 was 60.3 ± 6.2 µM and the “SI (selectivity index), MCF-7” value is listed as 0.95. In assay [4], the EC50 amounted to 61.1 ± 2.76 µM and the “SI (selectivity index), CCRF-CEM” value was found to be 0.94.
With `O=C(Cn1cnc2cc(Br)c(Br)cc21)c1c(Cl)cc(Cl)cc1Cl` [Compound 4g], the values for the EC50 in assay [1], in assay [2] and in assay [3] were 13.7 ± 0.63 µM, above 200 µM and 36.1 ± 1.47 µM, respectively. In assay [3], the “SI (selectivity index), MCF-7” value amounted to 0.38.
With `O=C(Cn1cnc2cc(Br)c(Br)cc21)c1ccc(F)cc1F` [Compound 4h], the EC50 in assay [1] worked out at 57.6 ± 0.71 µM; in assay [2], 54.1 ± 4.05 µM; in assay [3] it was 41.2 ± 3.85 µM; in assay [4], 59.9 ± 4.4 µM. The “SI (selectivity index), MCF-7” value in assay [3] is recorded as 1.40. Also, the “SI (selectivity index), CCRF-CEM” value in assay [4] is recorded as 0.96.
Take `O=C(Cn1cnc2cc(Br)c(Br)cc21)c1cc(F)ccc1F` [Compound 4i]: the EC50 in assay [1] was 47.8 ± 12 µM; in assay [2], 37.9 ± 1.72 µM; in assay [3], 29.6 ± 2.24 µM; in assay [4], 102 ± 8.62 µM. Besides, the “SI (selectivity index), MCF-7” value in assay [3] is 1.61. Further, in assay [4], the “SI (selectivity index), CCRF-CEM” value is recorded as 0.47.
In the case of `O=C(Cn1cnc2cc(Br)c(Br)cc21)c1c(F)cc(F)cc1F` [Compound 4j], the EC50 in assay [1] worked out at 48.8 ± 9.07 µM; in assay [2], 94.3 ± 6.47 µM; in assay [3], 37.6 ± 3.58 µM; in assay [4], 40.7 ± 1.03 µM. The “SI (selectivity index), MCF-7” value in assay [3] was 1.30. Besides, the “SI (selectivity index), CCRF-CEM” value in assay [4] is recorded as 1.20.
For the molecule `O=C(Cn1cnc2c(Br)cc(Br)cc21)c1ccccc1` [Compound 5a], the EC50 came out at 57.9 ± 0.88 µM in assay [1], 81.2 ± 6.68 µM in assay [2], 28.4 ± 1.11 µM in assay [3] and 183 ± 7.84 µM in assay [4]. Also, in assay [3], the “SI (selectivity index), MCF-7” value was 2.04. Also, the “SI (selectivity index), CCRF-CEM” value in assay [4] amounted to 0.32.
As for `O=C(Cn1cnc2c(Br)cc(Br)cc21)c1ccc(F)cc1` [Compound 5b], the EC50 in assay [1] was 49.2 ± 10.6 µM; in assay [2], 84.5 ± 3.09 µM; in assay [3], 45.93 ± 0.36 µM. Besides, the “SI (selectivity index), MCF-7” value in assay [3] worked out at 1.07.
In the case of `O=C(Cn1cnc2c(Br)cc(Br)cc21)c1ccc(Cl)cc1` [Compound 5c], the EC50 in assay [1] was found to be 39.1 ± 8.41 µM; in assay [2] it was 46.7 ± 1.2 µM; in assay [3], 30.4 ± 2.31 µM; in assay [4] it was 42.5 ± 8.36 µM. In addition, the “SI (selectivity index), MCF-7” value in assay [3] is on record as 1.29. Moreover, the “SI (selectivity index), CCRF-CEM” value in assay [4] turned out to be 0.92.
In the case of `O=C(Cn1cnc2c(Br)cc(Br)cc21)c1ccc(F)cc1F` [Compound 5h], the EC50 in assay [2] came to 61.26 ± 0.45 µM. In assay [3], the EC50 came out at 37 ± 2.15 µM and the “SI (selectivity index), MCF-7” value stood at 1.23. In assay [4], the EC50 is 51.2 ± 1.06 µM and the “SI (selectivity index), CCRF-CEM” value amounted to 0.89.
